In US20240180998A1, “MULTILAYERED PATCH” (KØBENHAVNS UNIVERSITET, priority 2021, published 2024):
In brackets after ≈: the same amount, converted by molar mass.

Key:
[1] = Drug loading of freeze-dried foam (disintegration of foam discs and quantification); assay type: physicochemical; details: for Loading efficiency (%): mean ± standard deviation
Experimental: The samples were incubated for 3 h at 37° C. and aliquots of 100 μL were withdrawn from each of the diffusion cells at specific time points and replenished with 100 μL warm (37° C.) hHBSS. The exact peptide dose was determined by disintegrating a 10 mm foam disc of known weight in 1 mL water for at least 1 h at RT. All samples were centrifuged (10,000 rpm/9279×g, 10 min, 4° C.) and the concentration of desmopressin in the supernatant was determined by reversed phase high performance liquid chromatography with UV detection (RP-HPLC-UV). Discs (10 mm in diameter) of NFF multilayered DDS were fixed in Ussing chamber […] […] 2 mL warm (37° C.) hHBSS without BSA pH 6.8 was added to each side of the sample. The samples were incubated for 3 h at 37° C. and aliquots of 100 μL were withdrawn from each of the diffusion cells at specific time points and replenished with 100 μl warm (37° C.) hHBSS without BSA pH 6.8.

C. albicans = details: Huang et al., 2020; cited from earlier work
[2] = Huang et al., 2020, cited from earlier work
[3] = drug loaded in foam, desmopressin at theoretical loading 29.13 μg/mg

SMILES	Loading efficiency (%) ([1]; desmopressin at theoretical loading 107.17 μg/mg)	Loading efficiency (%) [1, 3]	specific loading of desmopressin ([1]; foam of NFF, discs of 10 mm)	minimal fungicidal concentration (MFC) (C. albicans)	minimal inhibitory concentration (MIC) (C. albicans)	Log P [2]	aqueous solubility ([2]; in water)
NC(=O)CC[C@@H]1NC(=O)[C@H](Cc2ccccc2)NC(=O)[C@H](Cc2ccc(O)cc2)NC(=O)CCSSC[C@@H](C(=O)N2CCC[C@H]2C(=O)N[C@H](CCCN=C(N)N)C(=O)NCC(N)=O)NC(=O)[C@H](CC(N)=O)NC1=O [Desmopressin]	117 ± 1%	97 ± 1%	28.2±0.2 μg per mg of foam	–	–	–	–
Clc1ccccc1C(c1ccccc1)(c1ccccc1)n1ccnc1 [Clotrimazole]	–	110 ± 2%	–	4 µg/mL (≈ 11.6 µM)	1 µg/mL (≈ 2.9 µM)	6.3	0.49 µg/mL (≈ 1.42 µM)
